Source: US20230407243A1, “GENETIC PLATFORM TO INVESTIGATE THE FUNCTIONS OF BACTERIAL DRUG EFFLUX PUMPS” (priority 2022, published 2023)

Legend:
Type in all cases: cell-based, Escherichia coli
[1] = system: EKO-35 araC::mexCD (MexCD from P. aeruginosa); experiment: MIC susceptibility profiling, efflux platform; conditions: for Fold change of MICs: EKO-35 araC::mexCD compared to EKO-35
Procedure, shortened: (§1)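 LB o/n 37 °C → PBS pH 7.4, OD600 ~1.0 → 1/2000 in MHB II; 2-fold cmpd series, duplicate, DMSO ctrl; 18 h 37 °C, 900 rpm; OD600 post minus pre.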

EKO-35 araC::emrAB = experiment: MIC susceptibility profiling, efflux platform; conditions: for Fold change of MICs: EKO-35 araC::emrAB compared to EKO-35
Procedure, shortened: as §1

EKO-35 araC::acrD = experiment: MIC susceptibility profiling, efflux platform; conditions: for Fold change of MICs: EKO-35 araC::acrD compared to EKO-35
Procedure, shortened: as §1

EKO-35 araC::macAB = experiment: MIC susceptibility profiling, efflux platform; conditions: for Fold change of MICs: EKO-35 araC::macAB compared to EKO-35
Procedure, shortened: as §1

EKO-35 araC::acrBD408A = experiment: MIC susceptibility profiling, efflux platform; conditions: for Fold change of MICs: EKO-35 araC::acrBD408A compared to EKO-35
Procedure, shortened: as §1

EKO-35 araC::emrKY = experiment: MIC susceptibility profiling, efflux platform; conditions: for Fold change of MICs: EKO-35 araC::emrKY compared to EKO-35
Procedure, shortened: as §1

EKO-35 araC::mdtBC = experiment: MIC susceptibility profiling, efflux platform; conditions: for Fold change of MICs: EKO-35 araC::mdtBC compared to EKO-35
Procedure, shortened: as §1

EKO-35 araC::acrEF = experiment: MIC susceptibility profiling, efflux platform; conditions: for Fold change of MICs: EKO-35 araC::acrEF compared to EKO-35
Procedure, shortened: as §1

EKO-35 araC::emrKY Pore = experiment: MIC susceptibility profiling, porinated efflux platform; conditions: for Fold changes of MICs: EKO-35 araC::emrKY Pore compared to EKO-35-Pore
Procedure, shortened: (§2)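 E. coli strains carrying a genomically integrated constitutive fhuA ΔC/Δ4L pore were grown 18 h in LB at 37 °C, then diluted 1/2000 in MHB II from OD600 ~1.0. Compounds were tested in duplicate, 2-fold serial titration, for 18 h at 37 °C with shaking. MIC came from OD600 with the pre-incubation background subtracted.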

EKO-35 araC::acrD Pore = experiment: as above; conditions: for Fold changes of MICs: EKO-35 araC::acrD Pore compared to EKO-35-Pore
Procedure, shortened: as §2

EKO-35 araC::mdtEF Pore = experiment: as above; conditions: for Fold changes of MICs: EKO-35 araC::mdtEF Pore compared to EKO-35-Pore
Procedure, shortened: as §2

EKO-35 araC::acrEF Pore = experiment: as above; conditions: for Fold changes of MICs: EKO-35 araC::acrEF Pore compared to EKO-35-Pore
Procedure, shortened: as §2

EKO-35 araC::emrAB Pore = experiment: as above; conditions: for Fold changes of MICs: EKO-35 araC::emrAB Pore compared to EKO-35-Pore
Procedure, shortened: as §2

EKO-35 araC::mexCD Pore = experiment: as above; conditions: for Fold changes of MICs: EKO-35 araC::mexCD Pore compared to EKO-35-Pore
Procedure, shortened: as §2

EKO-35 araC::mdtBC Pore = experiment: as above; conditions: for Fold changes of MICs: EKO-35 araC::mdtBC Pore compared to EKO-35-Pore
Procedure, shortened: as §2

[2] = system: EKO-35 araC::acrBD408A Pore; experiment: as above; conditions: for Fold changes of MICs: EKO-35 araC::acrBD408A Pore compared to EKO-35-Pore
Procedure, shortened: as §2

EKO-35 araC::acrB Pore = experiment: as above; conditions: for Fold changes of MICs: EKO-35 araC::acr-B Pore compared to EKO-35-Pore
Procedure, shortened: as §2

EKO-35 araC::macAB Pore = experiment: as above; conditions: for Fold changes of MICs: EKO-35 araC::macAB Pore compared to EKO-35-Pore
Procedure, shortened: as §2

[3] = Table 13B, non-porinated, technical duplicate
[4] = Table 13A, non-porinated, technical duplicate
[5] = Table 14A, porinated, technical duplicate

SMILES	Fold change of MICs [1]	Fold change of MICs (EKO-35 araC::emrAB)	Fold change of MICs (EKO-35 araC::acrD)	Fold change of MICs (EKO-35 araC::macAB)	Fold change of MICs (EKO-35 araC::acrBD408A)	Fold change of MICs (EKO-35 araC::emrKY)	Fold change of MICs (EKO-35 araC::mdtBC)	Fold change of MICs (EKO-35 araC::acrEF)	Fold changes of MICs (EKO-35 araC::emrKY Pore)	Fold changes of MICs (EKO-35 araC::acrD Pore)	Fold changes of MICs (EKO-35 araC::mdtEF Pore)	Fold changes of MICs (EKO-35 araC::acrEF Pore)	Fold changes of MICs (EKO-35 araC::emrAB Pore)	Fold changes of MICs (EKO-35 araC::mexCD Pore)	Fold changes of MICs (EKO-35 araC::mdtBC Pore)	Fold changes of MICs [2]	Fold changes of MICs (EKO-35 araC::acrB Pore)	Fold changes of MICs (EKO-35 araC::macAB Pore)	other results
O=C(Nc1ccc(C(F)(F)F)cc1)Nc1ccc(C(F)(F)F)cc1 [compound 7]	1 fold	1 fold	1 fold	1 fold	1 fold	1 fold	1 fold	1 fold	1 fold	1 fold	1 fold	1 fold	1 fold	1 fold	1 fold	1 fold	1 fold	1 fold	Minimum Inhibitory Concentration, EKO-35 araC::mexCD [1, 3]: 320 µg/mL; Minimum Inhibitory Concentration, EKO-35 araC::emrAB (EKO-35 araC::emrAB; [3]): 320 µg/mL; Minimum Inhibitory Concentration, EKO-35 araC::acrD (EKO-35 araC::acrD; [4]): 320 µg/mL; Minimum Inhibitory Concentration, EKO-35 araC::macAB (EKO-35 araC::macAB; [3]): 320 µg/mL; Minimum Inhibitory Concentration, EKO-35 araC::acrBD408A (EKO-35 araC::acrBD408A; [3]): 320 µg/mL; Minimum Inhibitory Concentration, EKO-35 araC::emrKY (EKO-35 araC::emrKY; [3]): 320 µg/mL; Minimum Inhibitory Concentration, EKO-35 araC::mdtBC (EKO-35 araC::mdtBC; [3]): 320 µg/mL; Minimum Inhibitory Concentration, EKO-35 araC::acrEF (EKO-35 araC::acrEF; [4]): 320 µg/mL; Minimum inhibitory concentration (EKO-35 araC::emrKY Pore; EKO-35 araC::emrKY Pore, technical duplicate): 320 µg/mL; Minimum inhibitory concentration, EKO-35 araC::acrD Pore (EKO-35 araC::acrD Pore; [5]): 320 µg/mL; Minimum inhibitory concentration, EKO-35 araC::mdtEF Pore (EKO-35 araC::mdtEF Pore; [5]): 320 µg/mL; Minimum inhibitory concentration, EKO-35 araC::acrEF Pore (EKO-35 araC::acrEF Pore; [5]): 320 µg/mL; Minimum inhibitory concentration (EKO-35 araC::emrAB Pore; EKO-35 araC::emrAB Pore, technical duplicate): 320 µg/mL; Minimum inhibitory concentration (EKO-35 araC::mexCD Pore; EKO-35 araC::mexCD Pore, technical duplicate): 320 µg/mL; Minimum inhibitory concentration (EKO-35 araC::mdtBC Pore; EKO-35 araC::mdtBC Pore, technical duplicate): 320 µg/mL; Minimum inhibitory concentration ([2]; EKO-35 araC::acrBD408A Pore, technical duplicate): 320 µg/mL; Minimum inhibitory concentration, EKO-35 araC::acrB Pore (EKO-35 araC::acrB Pore; [5]): 320 µg/mL; Minimum inhibitory concentration (EKO-35 araC::macAB Pore; EKO-35 araC::macAB Pore, technical duplicate): 320 µg/mL
COc1ccc(C[C@H](N)C(=O)N[C@H]2[C@@H](O)[C@H](n3cnc4c(N(C)C)ncnc43)O[C@@H]2CO)cc1 [puromycin]	4 fold	1 fold	1 fold	1 fold	1 fold	1 fold	1 fold	4 fold	2 fold	1 fold	2 fold	4 fold	1 fold	2 fold	1 fold	1 fold	64 fold	1 fold	MIC ([1]; Table 13B, non-porinated, technical duplicate, read-out: Minimum Inhibitory Concentration, EKO-35 araC::mexCD): 6.25 µg/mL; MIC (EKO-35 araC::emrAB; Escherichia coli, Table 13B, non-porinated, technical duplicate, read-out: Minimum Inhibitory Concentration, EKO-35 araC::emrAB): 1.56 µg/mL; MIC (EKO-35 araC::acrD; Escherichia coli, Table 13A, non-porinated, technical duplicate, read-out: Minimum Inhibitory Concentration, EKO-35 araC::acrD): 1.56 µg/mL; MIC (EKO-35 araC::macAB; Escherichia coli, Table 13B, non-porinated, technical duplicate, read-out: Minimum Inhibitory Concentration, EKO-35 araC::macAB): 1.56 µg/mL; MIC (EKO-35 araC::acrBD408A; Escherichia coli, Table 13B, non-porinated, technical duplicate, read-out: Minimum Inhibitory Concentration, EKO-35 araC::acrBD408A): 1.56 µg/mL; MIC (EKO-35 araC::emrKY; Escherichia coli, Table 13B, non-porinated, technical duplicate, read-out: Minimum Inhibitory Concentration, EKO-35 araC::emrKY): 1.56 µg/mL; MIC (EKO-35 araC::mdtBC; Escherichia coli, Table 13B, non-porinated, technical duplicate, read-out: Minimum Inhibitory Concentration, EKO-35 araC::mdtBC): 1.56 µg/mL; MIC (EKO-35 araC::acrEF; Escherichia coli, Table 13A, non-porinated, technical duplicate, read-out: Minimum Inhibitory Concentration, EKO-35 araC::acrEF): 6.25 µg/mL; MIC (EKO-35 araC::emrKY Pore; Escherichia coli, EKO-35 araC::emrKY Pore, technical duplicate, read-out: Minimum inhibitory concentration): 1.56 µg/mL; MIC (EKO-35 araC::acrD Pore; Escherichia coli, Table 14A, porinated, technical duplicate, read-out: Minimum inhibitory concentration, EKO-35 araC::acrD Pore): 0.781 µg/mL; MIC (EKO-35 araC::mdtEF Pore; Escherichia coli, Table 14A, porinated, technical duplicate, read-out: Minimum inhibitory concentration, EKO-35 araC::mdtEF Pore): 1.56 µg/mL; MIC (EKO-35 araC::acrEF Pore; Escherichia coli, Table 14A, porinated, technical duplicate, read-out: Minimum inhibitory concentration, EKO-35 araC::acrEF Pore): 3.12 µg/mL; MIC (EKO-35 araC::emrAB Pore; Escherichia coli, EKO-35 araC::emrAB Pore, technical duplicate, read-out: Minimum inhibitory concentration): 0.781 µg/mL; MIC (EKO-35 araC::mexCD Pore; Escherichia coli, EKO-35 araC::mexCD Pore, technical duplicate, read-out: Minimum inhibitory concentration): 1.56 µg/mL; efflux pump-mediated resistance vs EKO-35-Pore (EKO-35 araC::mexCD Pore; MexCD, OM compromised): no longer associated MexCD with resistance; MIC (EKO-35 araC::mdtBC Pore; Escherichia coli, EKO-35 araC::mdtBC Pore, technical duplicate, read-out: Minimum inhibitory concentration): 0.781 µg/mL; MIC ([2]; Escherichia coli, EKO-35 araC::acrBD408A Pore, technical duplicate, read-out: Minimum inhibitory concentration): 0.781 µg/mL; MIC (EKO-35 araC::macAB Pore; Escherichia coli, EKO-35 araC::macAB Pore, technical duplicate, read-out: Minimum inhibitory concentration): 0.781 µg/mL
